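Protocol summary: plate cells (96-well), add compound at 5 concentrations, incubate 48 h, interpolate endpoints linearly. GI50: concentration for 50% inhibition of growth.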 Calls of active or inactive are those of the source. Cut-off read from the data, not from the text of the source: active = GI50 up to about 1.1 µM and inactive = higher.

Some test systems named below: SW-620; SN12C; SF-268; T47D; M14; MDA-MB-231; Malme-3M; BT-549; SK-MEL-5; DU-145; SK-OV-3; OVCAR-5; TK-10; COLO 205; PC-3; OVCAR-4; CAKI-1; NCI/ADR-RES; UACC-62; SK-MEL-2.
Holding throughout (test): inhibition of tumour cell growth, NCI panel, 48 h

Regarding `C[C@H]1CC[C@H](NC(=O)N(CCCl)N=O)CC1`, the GI50 in the test on SW-620 was 31.3 µM (inactive); in the test on SN12C, 40.4 µM (inactive); in the test on SF-268, 22.1 µM (inactive); with T47D, 29.7 µM (inactive); in the test with M14, 27.6 µM (inactive); with MDA-MB-231 it was 48 µM (inactive). For the same compound, the GI50 in the test on Malme-3M was 47.9 µM (inactive); in the test on BT-549 it was 24.7 µM (inactive); in the test on SK-MEL-5, 40.4 µM (inactive); in the test with DU-145, 82.4 µM (inactive); in the test on SK-OV-3, 77.3 µM (inactive); in the test with OVCAR-5, 55.7 µM (inactive). Moreover, the GI50 is 63.4 µM (inactive) with TK-10; 32.7 µM (inactive) in the test on COLO 205; 47.9 µM (inactive) with PC-3; 31.6 µM (inactive) with OVCAR-4; 27.2 µM (inactive) with CAKI-1; 47.1 µM (inactive) with NCI/ADR-RES. Also, the GI50 was 14.3 µM (inactive) with UACC-62 and 46.5 µM (inactive) in the test on SK-MEL-2.

For the compound `O=[N+]([O-])C(=C(Cl)Cl)C(Cl)=C(Cl)Cl`, the GI50 is 0.0169 µM (active) in the test on SW-620; 0.497 µM (active) with SN12C; 0.701 µM (active) in the test on SF-268; 0.037 µM (active) in the test with T47D; 0.0202 µM (active) with M14; 0.505 µM (active) in the test with MDA-MB-231. Besides, the GI50 with Malme-3M was 0.0454 µM (active); with BT-549, 0.124 µM (active); with SK-MEL-5, 0.52 µM (active); in the test with DU-145 it was 8.85 µM (inactive); with SK-OV-3, 3.25 µM (inactive); with OVCAR-5 it was 2.02 µM (inactive). For the same compound, the GI50 in the test on TK-10 is 0.372 µM (active); in the test with COLO 205, 0.0368 µM (active); in the test with PC-3, 0.778 µM (active); in the test on OVCAR-4 it was 0.0847 µM (active); with CAKI-1, 0.15 µM (active); in the test on NCI/ADR-RES, 1.36 µM (inactive). For the same compound, the figures for the GI50 with UACC-62 and with SK-MEL-2 were 0.433 µM (active) and 1.68 µM (inactive), respectively.

As for `CCc1nc(N)nc(N)c1-c1ccc(Cl)cc1` [PYRIMETHAMINE], the GI50 in the test with SW-620 is 5.61 µM (inactive); in the test with SN12C, 3.33 µM (inactive); with SF-268, 9.77 µM (inactive); in the test on T47D it was 32.7 µM (inactive); with M14, 5.71 µM (inactive); in the test on MDA-MB-231, 9.25 µM (inactive). The GI50 was 18.2 µM (inactive) in the test with Malme-3M; 25.8 µM (inactive) with BT-549; 2.48 µM (inactive) with SK-MEL-5; 18.7 µM (inactive) in the test with DU-145; 74.3 µM (inactive) with SK-OV-3; > 60 µM (inactive) in the test on OVCAR-5. Also, the GI50 with TK-10 was 21.7 µM (inactive); with COLO 205 it was 18.9 µM (inactive); in the test with PC-3, 6.5 µM (inactive); in the test on OVCAR-4, 41.6 µM (inactive); with CAKI-1, 71.9 µM (inactive); in the test with NCI/ADR-RES it was 30.9 µM (inactive). For the same compound, the values for the GI50 in the test on UACC-62 and in the test with SK-MEL-2 were 4.72 µM (inactive) and 38.4 µM (inactive), respectively.

On to `O=[N+]([O-])c1cc(Cl)ccc1Sc1ccccc1`, for which the GI50 was > 100 µM (inactive) in the test on SW-620; 77.4 µM (inactive) in the test with SN12C; > 100 µM (inactive) with SF-268; 69.5 µM (inactive) in the test with T47D; > 100 µM (inactive) with M14; > 100 µM (inactive) in the test on MDA-MB-231. Besides, the GI50 is > 100 µM (inactive) with Malme-3M; 81.5 µM (inactive) in the test on BT-549; 75.2 µM (inactive) in the test on SK-MEL-5; > 100 µM (inactive) in the test with DU-145; > 100 µM (inactive) in the test with SK-OV-3; > 100 µM (inactive) in the test on OVCAR-5. Besides, the GI50 in the test on TK-10 was > 100 µM (inactive); in the test with COLO 205 it was > 100 µM (inactive); in the test on PC-3, > 100 µM (inactive); with OVCAR-4, > 100 µM (inactive); with CAKI-1, 93.8 µM (inactive); with NCI/ADR-RES, > 100 µM (inactive). For the same compound, the GI50 in the test with UACC-62 was > 100 µM (inactive); in the test with SK-MEL-2, 44.8 µM (inactive).

Take `Cc1cc(S(=O)(=O)Nc2nc(N)n(C)n2)c(S)cc1Cl`: the GI50 in the test on SW-620, in the test with SN12C, in the test on SF-268, in the test on T47D, in the test with M14 and in the test with MDA-MB-231 was > 10 µM (inactive) throughout. The GI50 in the test with Malme-3M, with BT-549, in the test with SK-MEL-5, in the test with DU-145, in the test on SK-OV-3 and in the test on OVCAR-5 was > 10 µM (inactive) each time. The GI50 in the test on TK-10, in the test on COLO 205, with PC-3, in the test on OVCAR-4, in the test with CAKI-1 and with NCI/ADR-RES was > 10 µM (inactive) each time. Moreover, the GI50 in the test with UACC-62 and with SK-MEL-2 was > 10 µM (inactive) each time.

For the compound `CC(C)(C)OC(=O)N/N=C(/N)Cc1ccccc1`, the GI50 with SW-620, in the test on SN12C, in the test with SF-268, in the test on T47D, in the test with M14 and in the test with MDA-MB-231 was > 100 µM (inactive) throughout. Moreover, the GI50 in the test on Malme-3M, in the test with BT-549, in the test on SK-MEL-5, in the test on DU-145, in the test on SK-OV-3 and in the test with OVCAR-5 was > 100 µM (inactive) in each case. The GI50 in the test with TK-10, in the test with COLO 205, with PC-3, with OVCAR-4, in the test with CAKI-1 and in the test on NCI/ADR-RES was > 100 µM (inactive) in each case. The GI50 in the test on UACC-62 and with SK-MEL-2 was > 100 µM (inactive) throughout.

Turning to `CC(C)c1ccc(O)c(=O)c(O)c1.CC(C)c1ccc(O)c(=O)cc1.CC(C)c1cccc(=O)c(O)c1.CC(C)c1ccccc(=O)c1O`, the GI50 with SW-620 was 0.697 µM (active); in the test on SN12C, 0.998 µM (active); in the test on SF-268 it was 0.632 µM (active); in the test with T47D it was 1.88 µM (inactive); with M14, 1.8 µM (inactive); in the test with MDA-MB-231, 1.79 µM (inactive). The GI50 was 1.43 µM (inactive) in the test on Malme-3M; 4.8 µM (inactive) in the test with BT-549; 1.22 µM (inactive) in the test with SK-MEL-5; 1.42 µM (inactive) in the test with DU-145; 4.37 µM (inactive) in the test on SK-OV-3; 3.11 µM (inactive) with OVCAR-5. Moreover, the GI50 in the test with TK-10 is 0.459 µM (active); in the test with COLO 205, 2.77 µM (inactive); in the test with PC-3, 0.416 µM (active); in the test on OVCAR-4, 1.11 µM (active); in the test with CAKI-1, 1.36 µM (inactive); in the test with NCI/ADR-RES it was 0.42 µM (active). In addition, the GI50 was 0.787 µM (active) in the test on UACC-62 and 0.204 µM (active) in the test on SK-MEL-2.

The values are drawn from ChEMBL document CHEMBL1201862, “PubChem BioAssay data set” (2004).
